#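 96-well plates; 48 h exposure; 5 concentrations. Endpoints by linear interpolation between flanking doses. Not reached: highest tested concentration assigned. Abbreviation: GI50, concentration required for 50% inhibition of growth. TGI: concentration producing complete growth inhibition.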
# Key:
# Experiment in all cases: NCI anticancer screen, dose series, 48 h
# [1] = tested on: RPMI-8226 leukemia
# [2] = tested on: ACHN renal
# [3] = tested on: SR leukemia
# [4] = tested on: NCI-H460 lung
# [5] = tested on: EKVX NSCLC
# [6] = tested on: SNB-75 CNS
# [7] = tested on: HCC-2998 colon
# [8] = tested on: SF-295 CNS
# [9] = tested on: SF-539 CNS
# [10] = tested on: KM12 colon
# [11] = tested on: COLO 205 colon
# [12] = tested on: A498 renal
# [13] = tested on: MDA-MB-231 breast
# [14] = tested on: PC-3 prostate
# [15] = tested on: T-47D breast
# [16] = tested on: SF-268 CNS
# [17] = tested on: HOP-62 NSCLC
# [18] = tested on: MDA-MB-435
# [19] = tested on: CAKI-1 renal
# [20] = tested on: NCI-H23 lung
# [21] = tested on: RXF 393 renal
# [22] = tested on: HCT-116 colon
# [23] = tested on: OVCAR-8 ovarian
# [24] = tested on: OVCAR-3 ovarian
# [25] = tested on: MALME-3M melanoma
# [26] = tested on: SK-OV-3 ovarian
# [27] = tested on: UO-31 renal
# [28] = tested on: BT-549 breast
# [29] = tested on: DU-145 prostate
# [30] = tested on: SK-MEL-28 melanoma
# [31] = tested on: UACC-62 melanoma
# [32] = tested on: UACC-257 melanoma
# [33] = tested on: OVCAR-4 ovarian
# [34] = tested on: SNB-19 CNS
# [35] = tested on: SK-MEL-5 melanoma
# [36] = tested on: NCI/ADR-RES ovarian
# [37] = tested on: OVCAR-5 ovarian
# [38] = tested on: MOLT-4 leukemia
# [39] = tested on: HS 578T breast
# [40] = tested on: NCI-H522 lung
# [41] = tested on: IGROV1 ovarian
# [42] = tested on: SW-620 colon
# [43] = tested on: HT29 colon
# [44] = tested on: CCRF-CEM leukemia
# [45] = tested on: NCI-H226 lung
# [46] = tested on: MCF7 breast
# [47] = tested on: HOP-92 NSCLC
# [48] = tested on: SN12C renal
# [49] = tested on: LOX IMVI melanoma
# [50] = tested on: M14 melanoma
# [51] = tested on: HCT-15 colon
# [52] = tested on: K-562 leukemia
# [53] = tested on: A549 NSCLC
# [54] = tested on: 786-0 renal
# [55] = tested on: HL-60(TB) leukemia
# [56] = tested on: TK-10 renal
# [57] = tested on: U251 CNS
# [58] = tested on: SK-MEL-2 melanoma
smiles,measurement,setting,value
O=C(CCCCCCC(=O)Nc1ccc(N(CCCl)CCCl)cc1)NO,GI50,[1],3.02 µM
same,TGI,[1],> 100 µM
same,GI50,[2],1.09 µM
same,TGI,[2],4.86 µM
same,GI50,[3],0.23 µM
same,TGI,[3],3.09 µM
same,GI50,[4],0.598 µM
same,TGI,[4],12.9 µM
same,GI50,[5],11.5 µM
same,TGI,[5],37.9 µM
same,GI50,[6],1.35 µM
same,TGI,[6],10.1 µM
same,GI50,[7],9.26 µM
same,TGI,[7],22.6 µM
same,GI50,[8],1.91 µM
same,TGI,[8],10.2 µM
same,GI50,[9],2.38 µM
same,TGI,[9],14.7 µM
same,GI50,[10],6.58 µM
same,TGI,[10],21.7 µM
same,GI50,[11],4.4 µM
same,TGI,[11],19.9 µM
same,GI50,[12],3.11 µM
same,TGI,[12],13.1 µM
same,GI50,[13],6.99 µM
same,TGI,[13],52.4 µM
same,GI50,[14],3.7 µM
same,TGI,[14],> 100 µM
same,GI50,[15],1.63 µM
same,TGI,[15],7.37 µM
same,GI50,[16],1.08 µM
same,TGI,[16],3.82 µM
same,GI50,[17],2.98 µM
same,TGI,[17],13.5 µM
same,GI50,[18],1.87 µM
same,TGI,[18],12 µM
same,GI50,[19],1.2 µM
same,TGI,[19],11.2 µM
same,GI50,[20],2.1 µM
same,TGI,[20],8.64 µM
same,GI50,[21],1.64 µM
same,TGI,[21],4.74 µM
same,GI50,[22],1.97 µM
same,TGI,[22],12.9 µM
same,GI50,[23],1.79 µM
same,TGI,[23],21 µM
same,GI50,[24],1.92 µM
same,TGI,[24],6.66 µM
same,GI50,[25],0.507 µM
same,TGI,[25],5.6 µM
same,GI50,[26],3.76 µM
same,TGI,[26],15.9 µM
same,GI50,[27],1.82 µM
same,TGI,[27],13 µM
same,GI50,[28],5.83 µM
same,TGI,[28],29.2 µM
same,GI50,[29],2.72 µM
same,TGI,[29],19.3 µM
same,GI50,[30],3.35 µM
same,TGI,[30],16.3 µM
same,GI50,[31],1.09 µM
same,TGI,[31],5.09 µM
same,GI50,[32],2.27 µM
same,TGI,[32],14.1 µM
same,GI50,[33],3.37 µM
same,TGI,[33],32.4 µM
same,GI50,[34],4.12 µM
same,TGI,[34],29 µM
same,GI50,[35],1.33 µM
same,TGI,[35],2.92 µM
same,GI50,[36],5.4 µM
same,TGI,[36],> 100 µM
same,GI50,[37],2.56 µM
same,TGI,[37],30.6 µM
same,GI50,[38],0.421 µM
same,TGI,[38],4.26 µM
same,GI50,[39],5.66 µM
same,TGI,[39],> 100 µM
same,GI50,[40],0.474 µM
same,TGI,[40],2.03 µM
same,GI50,[41],2.51 µM
same,TGI,[41],21.2 µM
same,GI50,[42],1.71 µM
same,TGI,[42],22 µM
same,GI50,[43],1.56 µM
same,TGI,[43],12.7 µM
same,GI50,[44],0.405 µM
same,TGI,[44],> 100 µM
same,GI50,[45],4.01 µM
same,TGI,[45],21 µM
same,GI50,[46],1.48 µM
same,TGI,[46],24.3 µM
same,GI50,[47],1.19 µM
same,TGI,[47],5.47 µM
same,GI50,[48],0.8 µM
same,TGI,[48],18.6 µM
same,GI50,[49],1.34 µM
same,TGI,[49],3.78 µM
same,GI50,[50],2.43 µM
same,TGI,[50],10.7 µM
same,GI50,[51],18.9 µM
same,TGI,[51],> 100 µM
same,GI50,[52],1.75 µM
same,TGI,[52],12.3 µM
COc1ccc(-c2nn3c(-c4cc(F)c(Cl)cc4Cl)nnc3s2)cc1,GI50,[1],19.6 µM
same,TGI,[1],52.7 µM
same,GI50,[2],37.8 µM
same,TGI,[2],> 100 µM
same,GI50,[4],22.4 µM
same,TGI,[4],86.5 µM
same,GI50,[5],34.1 µM
same,TGI,[5],> 100 µM
same,GI50,[6],17.2 µM
same,TGI,[6],51.5 µM
same,GI50,[7],20.7 µM
same,TGI,[7],48.7 µM
same,GI50,[8],16.2 µM
same,TGI,[8],65.3 µM
same,GI50,[9],20.8 µM
same,TGI,[9],44.4 µM
same,GI50,[53],39.1 µM
same,TGI,[53],> 100 µM
same,GI50,[54],33.4 µM
same,TGI,[54],> 100 µM
same,GI50,[10],26.3 µM
same,TGI,[10],> 100 µM
same,GI50,[11],16.5 µM
same,TGI,[11],36.8 µM
same,GI50,[12],43.4 µM
same,TGI,[12],> 100 µM
same,GI50,[13],27.7 µM
same,TGI,[13],> 100 µM
same,GI50,[14],34.1 µM
same,TGI,[14],> 100 µM
same,GI50,[15],27.5 µM
same,TGI,[15],> 100 µM
same,GI50,[16],19.7 µM
same,TGI,[16],> 100 µM
same,GI50,[17],26.2 µM
same,TGI,[17],> 100 µM
same,GI50,[18],4.86 µM
same,TGI,[18],> 100 µM
same,GI50,[55],15.6 µM
same,TGI,[55],43.9 µM
same,GI50,[19],37.9 µM
same,TGI,[19],> 100 µM
same,GI50,[20],29.9 µM
same,TGI,[20],> 100 µM
same,GI50,[21],28.7 µM
same,TGI,[21],97.2 µM
same,GI50,[22],20.8 µM
same,TGI,[22],52.9 µM
same,GI50,[23],22 µM
same,TGI,[23],62.1 µM
same,GI50,[24],20.4 µM
same,TGI,[24],66.7 µM
same,GI50,[25],26.8 µM
same,TGI,[25],> 100 µM
same,GI50,[26],21.4 µM
same,TGI,[26],> 100 µM
same,GI50,[27],18.3 µM
same,TGI,[27],> 100 µM
same,GI50,[56],56.5 µM
same,TGI,[56],> 100 µM
same,GI50,[28],24.4 µM
same,TGI,[28],69.7 µM
same,GI50,[29],29.1 µM
same,TGI,[29],83 µM
same,GI50,[30],25.8 µM
same,TGI,[30],> 100 µM
same,GI50,[31],21.8 µM
same,TGI,[31],> 100 µM
same,GI50,[32],32.2 µM
same,TGI,[32],> 100 µM
same,GI50,[33],23.5 µM
same,TGI,[33],87.4 µM
same,GI50,[34],39.4 µM
same,TGI,[34],> 100 µM
same,GI50,[35],17.6 µM
same,TGI,[35],44.7 µM
same,GI50,[36],21.2 µM
same,TGI,[36],99.7 µM
same,GI50,[37],25.5 µM
same,TGI,[37],88.9 µM
same,GI50,[57],24.6 µM
same,TGI,[57],74.5 µM
same,GI50,[38],26.5 µM
same,TGI,[38],80.7 µM
same,GI50,[39],43.3 µM
same,TGI,[39],> 100 µM
same,GI50,[40],17 µM
same,TGI,[40],73.1 µM
same,GI50,[42],24.6 µM
same,TGI,[42],> 100 µM
same,GI50,[43],18.5 µM
same,TGI,[43],44.3 µM
same,GI50,[44],28.8 µM
same,TGI,[44],> 100 µM
same,GI50,[45],47.9 µM
same,TGI,[45],> 100 µM
same,GI50,[46],11.4 µM
same,TGI,[46],> 100 µM
same,GI50,[47],24.2 µM
same,TGI,[47],77.9 µM
same,GI50,[48],43.4 µM
same,TGI,[48],> 100 µM
same,GI50,[49],26.4 µM
same,TGI,[49],> 100 µM
same,GI50,[58],25.4 µM
same,TGI,[58],60.1 µM
same,GI50,[50],25.6 µM
same,TGI,[50],95.9 µM
same,GI50,[51],18.1 µM
same,TGI,[51],> 100 µM
same,GI50,[52],5.13 µM
same,TGI,[52],44.7 µM

# Reference: PubChem BioAssay (NCI)
